Test results reported in publication PMC4393083, “Antiviral Activity and Possible Mechanism of Action of Constituents Identified in Paeonia lactiflora Root toward Human Rhinoviruses” (PLoS ONE, 2015).
Like-named read-outs stand apart in the source and are kept apart here. Blank lines part the entries; values can stand above or below the compound they belong to.

Columns and labels:
[1] = system: two HRVs (HRV-2 and HRV-4); test: Cytopathic effect inhibition assay, summary over both serotypes; type: cell-based, human rhinovirus; details: Rhinovirus A; range over HRV-2 and HRV-4, HeLa and MRC5 cells; read-out: IC50 toward two HRVs (range)
Description: (§1) Monolayers of HeLa and MRC5 cells were seeded onto a 96-well culture plate as stated previously. Subsequently, 90 μL media containing several different concentrations (1–1000 μg/mL) of each test material in DMSO was put into the wells, and then 10 μL of 10×TCID50 of the virus stock was added to produce an appropriate CPE within 2 days after infection. Ribavirin served as a reference control and was similarly prepared. Negative controls consisted of the DMSO solution. Viral inhibition rate (VIR) (%) was calculated according to the formula [21], VIR = (A tV—A cV)/(A cd—A cV) × 100, where A tV is the optical density measured with a given concentration of the test compound in HRV infected cells; A cV is the optical density measured for the control untreated HRV infected cells; A cd is the optical density measured for the control untreated HRV uninfected cells.
(§2) The CC50 and IC50 values were determined using GraphPad Prism 5 software program (GraphPad Software, La Jolla, CA). […] The selectivity index (SI) was determined as the ratio of CC50 to IC50 [23]. All data represent the mean ± SD of duplicate or triplicate samples of three independent experiments. Statistical analyses were carried out using SAS 9.13 program (SAS Institute, Cary, NC). Data from two groups were analyzed by a Student’s t-test, and multiple groups were analyzed by a one-way analysis of variance and Bonferroni multiple comparison post-test.

HRV-4 [2] = test: Virus titration assay, HRV-4 in MRC5 cultures; type: cell-based, human rhinovirus; details: PGG 20 μg/mL, PA 100 μg/mL, ribavirin 100 μg/mL; for Log (TCID50/mL) ± SE HRV-4: infected MRC5 cultures, 48 h, infected untreated control 3.81; for Reduction of virus replication (Log (TCID50/mL)) ± SE HRV-4: vs infected untreated control
Description: (§3) Virus titers in infected MRC-5 cultures treated with PA and PGG were measured as TCID50 using MTT-based titration method. In brief, MRC5 cells were seeded at 10^5 cells/mL in a 6-well plate. After 24 h, the cell monolayers were treated with 100 μg/mL PA or 20 μg/mL PGG and infected with HRV-2 or HRV-4 in a concentration of 10×TCID50/mL. Uninfected untreated and infected untreated cultures were included in the assay. The 100 μg/mL of ribavirin was used as a reference control. After 48 h incubation at 37°C, the cultures were frozen and thawed at −80°C/25°C. Cell debris was removed by centrifugation (2000 rpm) and the virus supernatants were collected. Virus titration was then performed in HeLa cell cultures. Initially, a 1:10 dilution of each supernatant was prepared followed by 10 serial 2-fold-dilutions, and added to HeLa cell monolayers. After 48 h, cell mortality was measured using an MTT assay stated previously. Graphs were built by plotting dead cell percentages toward virus dilution factors of each virus supernatant. The 50% infectivity point was calculated through a linear regression analysis of the curve.

HRV-2 = test: Virus titration assay, HRV-2 in MRC5 cultures; type: cell-based, human rhinovirus; details: PGG 20 μg/mL, PA 100 μg/mL, ribavirin 100 μg/mL; for Log (TCID50/mL) ± SE HRV-2: infected MRC5 cultures, 48 h, infected untreated control 3.93; for Reduction of virus replication (Log (TCID50/mL)) ± SE HRV-2: vs infected untreated control
Description: as §3

[3] = Cytotoxicity MTT assay in HeLa cells; type: cell-based; details: human, tetrazolium assay, read-out: CC50 (95% CL)
Description: (§4) The cytotoxicity of the test materials to two human cell lines was evaluated using an MTT assay described previously by Morgan. In brief, a 10× stock solution of MTT was prepared by adding 5 mg/mL MTT in phosphate-buffered saline (PBS) (pH 7.4). The stock solution was sterile-filtered and stored at −20°C. HeLa and MRC5 cells were seeded onto 96-well culture plates at a density of 3 × 10^4 cells per well for 1 day. The culture medium was removed and the plates with monolayer cells were replaced with media containing several different concentrations (1–1000 μg/mL) of the test materials in dimethylsulfoxide (DMSO). After incubation at 37°C and 5% CO2 for 2 days, the culture plates were then washed once with 200 μL PBS. A volume of 100 μL medium containing 0.05% MTT were added to each well and then incubated for 4 h at the same condition. After then, MTT solution was removed and 150 μL DMSO was added to each well. Finally, the plate was shaken for 15 min to dissolve the purple formazan crystals that had formed. Absorbance was read at 560 nm by using a VersaMax microplate reader (Molecular Devices, Sunnyvale, CA) with a reference absorbance at 670 nm.
as §2, with “Statistical analyses were carried out using SAS 9.13 program (SAS Institute, Cary, NC).” left out

[4] = Cytotoxicity MTT assay in MRC5 cells; type: cell-based, human; details: human, tetrazolium assay, read-out: CC50 (95% CL)
Description: as §4
as §2, with “Statistical analyses were carried out using SAS 9.13 program (SAS Institute, Cary, NC).” left out

HRV-4 [5] = test: Cytopathic effect inhibition assay (MTT), HRV-4 in HeLa cells; type: cell-based, human rhinovirus; details: read-out: IC50 (95% CL) HRV-4
Description: Extraction procedures of air-dried root of P. lactiflora were performed as described previously by Ngan et al.. For isolation of active principles, viral CPE inhibition assay toward HRV-4 in HeLa cell was used. […]. Column fractions were monitored by TLC on silica gel plates developed with chloroform and methanol (7:3 by volume) mobile phase. Fractions with similar R f values on the TLC plates were pooled. Active fractions 4 to 5 (EI, 2.44 g) and 7 (EII, 0.569 g) were obtained. The active fraction EI was rechromatographed on a silica gel column by elution with chloroform and methanol (70:30 by volume) to give nine fractions (each about 450 mL). A preparative HPLC was used for separation of constituents from the active fractions 3 to 5 (0.176 g). The column was a 4.6 mm i.d. × 150 mm Eclipse XDB-C18 (Agilent, Santa Clara, CA) using a mobile phase of methanol and water (3:7 by volume) at a flow rate of 0.5 mL/min. Chromatographic separations were monitored using a UV detector at 260 nm. […]. The three antiviral principles were characterized as paeonol (PA) (1), gallic acid (GA) (2), and 1,2,3,4,6-penta-O-galloyl-β-D-glucopyranose (PGG) (3) (Fig 1) by spectroscopic analyses, including MS and NMR. PA (1): compound 1 was isolated as an antibacterial principle from P. lactiflora root in our previous work, and the spectral data of compound 1 was largely identical to the published data. GA (2) was identified on the basis of the following evidence: white powder. UV (MeOH): λmax nm = 260. FT-IR: v max cm^–1 = 3491–3063 (OH stretch), 1608 (aromatic C = C). […] The interpretations of proton and carbon signals of compound 2 were largely consistent with those of Sakar et al.. PGG (3): compound 3 was isolated as an antibacterial principle from P. lactiflora root in our previous work, and the spectral data of compound 3 was largely identical to the published data.
as §1, §2

[6] = Human rhinovirus sp., HRV4, HeLa

IC50 (HRV-4 [5]; [6]): 324 µM
IC50 (HRV-4 [5]): 324 µM
SMILES: NC(=O)c1ncn([C@@H]2O[C@H](CO)[C@@H](O)[C@H]2O)n1 [Ribavirin, reference compound]
IC50 [1]: 240 to 324 µM
reduction of the HRV-4 titer (HRV-4 [2]): 36.0%
Log (TCID50/mL) ± SE HRV-4 (HRV-4 [2]): 2.44 ± 0.024 a Log (TCID50/mL)
Reduction of virus replication (Log (TCID50/mL)) ± SE HRV-4 (HRV-4 [2]): 1.37 ± 0.023 Log (TCID50/mL)
reduction of the HRV-2 titer (HRV-2): 30.3%
Log (TCID50/mL) ± SE HRV-2 (HRV-2): 2.74 ± 0.020 a Log (TCID50/mL)
Reduction of virus replication (Log (TCID50/mL)) ± SE HRV-2 (HRV-2): 1.19 ± 0.020 Log (TCID50/mL)
CC50 at 2 days [3]: 2340 µM
CC50 at 2 days [4]: 2230 µM

SMILES: O=C(OC[C@H]1O[C@@H](OC(=O)c2cc(O)c(O)c(O)c2)[C@H](OC(=O)c2cc(O)c(O)c(O)c2)[C@@H](OC(=O)c2cc(O)c(O)c(O)c2)[C@@H]1OC(=O)c1cc(O)c(O)c(O)c1)c1cc(O)c(O)c(O)c1 [PGG, 1,2,3,4,6-penta-O-galloyl-β-D-glucopyranose]
IC50 [1]: 11.6 to 17.9 µM
reduction of the HRV-4 titer (HRV-4 [2]): 20.7%
Log (TCID50/mL) ± SE HRV-4 (HRV-4 [2]): 3.04 ± 0.038 c Log (TCID50/mL)
Reduction of virus replication (Log (TCID50/mL)) ± SE HRV-4 (HRV-4 [2]): 0.79 ± 0.038 Log (TCID50/mL)
reduction of the HRV-2 titer (HRV-2): 17.3%
Log (TCID50/mL) ± SE HRV-2 (HRV-2): 3.25 ± 0.075 b ^b Log (TCID50/mL)
Reduction of virus replication (Log (TCID50/mL)) ± SE HRV-2 (HRV-2): 0.68 ± 0.075 Log (TCID50/mL)
CC50 at 2 days [3]: 109 µM
CC50 at 2 days [4]: 108 µM
IC50 (HRV-4 [5]; [6]): 14.4 µM
IC50 (HRV-4 [5]): 14.4 µM

IC50 (HRV-4 [5]; [6]): 514 µM
IC50 (HRV-4 [5]): 514 µM
SMILES: COc1ccc(C(C)=O)c(O)c1 [PA, paeonol]
IC50 [1]: 492 to 608 µM
reduction of the HRV-4 titer (HRV-4 [2]): 27.6%
Log (TCID50/mL) ± SE HRV-4 (HRV-4 [2]): 2.76 ± 0.024 b Log (TCID50/mL)
Reduction of virus replication (Log (TCID50/mL)) ± SE HRV-4 (HRV-4 [2]): 1.05 ± 0.023 Log (TCID50/mL)
reduction of the HRV-2 titer (HRV-2): 22.4%
Log (TCID50/mL) ± SE HRV-2 (HRV-2): 3.05 ± 0.046 b Log (TCID50/mL)
Reduction of virus replication (Log (TCID50/mL)) ± SE HRV-2 (HRV-2): 0.88 ± 0.046 Log (TCID50/mL)
CC50 at 2 days [3]: 3160 µM
CC50 at 2 days [4]: 3140 µM
